# Data: patent US11066414B2, “Cot modulators and methods of use thereof” (Gilead Sciences, Inc., priority 2015, dated 2021)
# Like-named read-outs stand apart in the source and are kept apart here.
# System: TNFα
# Assay: Cot Monocyte TNFα Cell Based Assay
# [1] = Homo sapiens, Monocyte, read-out: EC50 TNF, LPS-stimulated human monocytes, TNFα TR-FRET
# [2] = Homo sapiens, Monocyte, read-out: EC50 TNF, LPS-stimulated human monocytes, TNFα
compound,measurement,setting,value
"Cn1cccc([C@H](Nc2cc(C#N)c3ncc(C#N)c(NCC(C)(C)C)c3c2)c2cn(C3(C(F)(F)F)CC3)nn2)c1=O [Example 844, (S)-6-(((1-methyl-2-oxo-1,2-dihydropyridin-3-yl)(1-(1-(trifluoromethyl)cyclopropyl)-1H-1,2,3-triazol-4-yl)methyl)amino)-4-(neopentylamino)quinoline-3,8-dicarbonitrile]",EC50,[1],417 nM
"Cc1nc(F)ccc1[C@H](Nc1cc(Cl)c2ncc(C#N)c(N[C@H](C)C(C)(C)C)c2c1)c1cn(C2(C(F)(F)F)CC2)nn1 [Example 582, 8-chloro-4-(((R)-3,3-dimethylbutan-2-yl)amino)-6-(((S)-(6-fluoro-2-methylpyridin-3-yl)(1-(1-(trifluoromethyl)cyclopropyl)-1H-1,2,3-triazol-4-yl)methyl)amino)quinoline-3-carbonitrile]",EC50,[2],184 nM
"N#Cc1cnc2c(Cl)cc(N[C@@H](c3cccnc3)c3cn(C4CCN(C5COC5)CC4)nn3)cc2c1Nc1ccc(F)c(Cl)c1 [Example 314, (S)-8-chloro-4-((3-chloro-4-fluorophenyl)amino)-6-(((1-(1-(oxetan-3-yl)piperidin-4-yl)-1H-1,2,3-triazol-4-yl)(pyridin-3-yl)methyl)amino)quinoline-3-carbonitrile]",EC50,[2],302 nM
"Cc1nc(F)ccc1[C@H](Nc1cc(Cl)c2ncc(C#N)c(NCC(C)(C)C)c2c1)c1nnn2c1OCCC2 [Example 985, (S)-8-chloro-6-(((6,7-dihydro-5H-[1,2,3]triazolo[5,l-b][1,3]oxazin-3-yl)(6-fluoro-2-methylpyridin-3-yl)methyl)amino)-4-(neopentylamino)quinoline-3-carbonitrile]",EC50,"read-out: EC50 TNF, LPS-stimulated human monocytes, TNFα TR-FRET",126 nM
"CC(C)(C)CNc1c(C#N)cnc2c(Br)cc(N[C@H](c3cn(C4(C(F)(F)F)CC4)nn3)c3cccc4ncsc34)cc12 [Example 439, (S)-6-((benzo[d]thiazol-7-yl(1-(1-(trifluoromethyl)cyclopropyl)-1H-1,2,3-triazol-4-yl)methyl)amino)-8-bromo-4-(neopentylamino)quinoline-3-carbonitrile]",EC50,[2],299 nM
"COc1ccnc2cccc([C@H](Nc3cc(Cl)c4ncc(C#N)c(NCC(C)(C)C)c4c3)c3cn(C4(C(F)(F)F)CC4)nn3)c12 [Example 632, (S)-8-chloro-6-(((4-methoxyquinolin-5-yl)(1-(1-(trifluoromethyl)cyclopropyl)-1H-1,2,3-triazol-4-yl)methyl)amino)-4-(neopentylamino)quinoline-3-carbonitrile]",EC50,[2],1000 nM
"Cc1ncccc1[C@H](Nc1cc(Cl)c2ncc(C#N)c(Nc3cccc(Cl)c3)c2c1)c1c[nH]nn1 [Example 224, (S)-8-chloro-4-((3-chlorophenyl)amino)-6-(((2-methylpyridin-3-yl)(1H-1,2,3-triazol-4-yl)methyl)amino)-quinoline-3-carbonitrile]",EC50,[2],2630 nM
"COc1ccc(C(Nc2cc(Cl)c3ncc(C#N)c(NCC(C)(C)C)c3c2)c2nnn(C)c2OC)c(C)n1 (stereo not shown) [Example 970, 8-chloro-6-(((5-methoxy-1-methyl-1H-1,2,3-triazol-4-yl)(6-methoxy-2-methylpyridin-3-yl)methyl)amino)-4-(neopentylamino)quinoline-3-carbonitrile]",EC50,[1],722 nM
"Cn1nccc1[C@H](Nc1cc(Cl)c2ncc(C#N)c(NCC(C)(C)C)c2c1)c1cn(C2(C(F)(F)F)CC2)nn1 [Example 666, (S)-8-chloro-6-(((1-methyl-1H-pyrazol-S-yl)(1-(1-(trifluoromethyl)cyclopropyl)-1H-1,2,3-triazol-4-yl)methyl)amino)-4-(neopentylamino)quinoline-3-carbonitrile]",EC50,"read-out: EC50 TNF, LPS-stimulated human monocytes, TNFα",246 nM
"Cc1ncoc1[C@H](Nc1cc(Cl)c2ncc(C#N)c(NCC(C)(C)C)c2c1)c1cn(C2(C(F)F)CC2)nn1 [Example 630, (R)-8-chloro-6-(((1-(1-(difluoromethyl)cyclopropyl)-1H-1,2,3-triazol-4-yl)(4-methyloxazol-5-yl)methyl)amino)-4-(neopentylamino)quinoline-3-carbonitrile]",EC50,[2],1000 nM
